Measured values as given in patent US5861396A, “Purin-6-one derivatives” (Bayer Aktiengesellschaft, priority 1995, dated 1999).

Experiments:
PDE V (c-GMP-specific) = assay: Inhibition of the phosphodiesterases in vitro: PDE V; format: biochemical; conditions: nucleotide 10^-6 mol/l, pH 7.5, 30 min; or [^3H] cGMP SPA assay
Method: (§1) The c-GMP-stimulable PDE II, the c-GMP-inhibitable PDE III and the cAMP-specific PDE IV were isolated either from porcine or bovine myocardium. The Ca^2+ calmodulin-stimulable PDE I was isolated from porcine aorta, porcine brain or preferably from bovine aorta The c-GMP-specific PDE V was obtained from porcine small intestine, porcine aorta, human blood platelets and preferably from bovine aorta. Purification was carried out by anion exchange chromatography on Mono® Pharmacia essentially according to the method of M. Hoey and Miles D. Houslay, Biochemical Pharmacology, Vol. 40, 193-202 (1990) and C. Lugman et al., Biochemical Pharmacology Vol. 35, 1743-1751 (1986).
(§2) The enzyme activity was determined in a test mixture of 100 μl in 20 mM tris/HCl buffer ph 7.5 which contains 5 MM MgCl2, 0.1 mg/ml of bovine serum albumin and either 800 Bq of ^3 HcAMP or ^3 HcGMP. The final concentration of the corresponding nucleotides is 10^-6 mol/l. The reaction is started by addition of the enzyme; the amount of enzyme is proportioned such that during the incubation time of 30 min about 50% of the substrate is reacted. In order to test the cGMP-stimulable PDE II, ^3 HcAMP is used as a substrate and 10^-6 mol/l of unlabelled cGMP is added to the mixture. In order to test the Ca calmodulin-dependent PDE I, additionally CaCl2, 1 μM and calmodulin, 0.1 μM are added to the reaction mixture. The reaction is stopped by addition of 100 μl of acetonitrile which contains 1 mM cAMP and 1 mM AMP. 100 μl of the reaction mixture are separated on an HPLC and the cleavage products are quantitatively determined "on-line" using a flow scintillation counter. The substance concentration is measured at which the reaction rate is decreased by 50%. Additionally, the "phosphodiesterase [3H] cAMP-SPA enzyme assay" and the "phosphodiesterase [^3 H] cGMP-SPA enzyme assay" from Amersham Life Science were used for testing. The test was carried out according to the experimental protocol indicated by the manufacturer. For activity determination of the PDE2, the [^3 H] cAMP SPA assay was used, 10^-6 M cGMP being added to the reaction mixture to activate the enzyme. For the measurement of PDE1, calmodulin, 10^-7 M and CaCl2, 1 μM were added to the reaction mixture. The PDE5 was measured using the [^3 H] cGMP SPA assay.

[1] = test system: PDE I (Ca^2+ calmodulin-stimulable); assay: Inhibition of the phosphodiesterases in vitro: PDE I; format: biochemical, porcine aorta, porcine brain or preferably bovine aorta; conditions: CaCl2 1 μM and calmodulin 0.1 μM added; nucleotide 10^-6 mol/l; pH 7.5; 30 min
Method: as §1, §2

[2] = test system: PDE II (c-GMP-stimulable); assay: Inhibition of the phosphodiesterases in vitro: PDE II; format: biochemical, porcine or bovine (myocardium); conditions: ^3H cAMP substrate, 10^-6 mol/l unlabelled cGMP added; pH 7.5; 30 min
Method: as §1, §2

Compound | IC50 (PDE V (c-GMP-specific)) [µM] | IC50 [1] [µM] | IC50 [2] [µM]
CCOC(=O)N1CCC(C(=O)Nc2ccc(Cc3nc4c(ncn4C(CCCc4ccccc4)C(C)O)c(=O)[nH]3)cc2)CC1 (stereo not drawn) [Example 122] | 1 | 0.5 | 0.004
CC(O)C(CCCc1ccccc1)n1cnc2c(=O)[nH]c(Cc3ccc(NC(=O)C4CCN(C(=O)OCc5ccccc5)CC4)cc3)nc21 (stereo not drawn) [Example 121] | 1 | 0.5 | 0.003
CC(CCCc1ccccc1)n1cnc2c(=O)[nH]c(Cc3ccc(-c4ccc(F)cc4)cc3)nc21 (stereo not drawn) [Example 80] | 1 | 0.1 | 0.08
CC(CCCc1ccccc1)n1cnc2c(=O)[nH]c(Cc3ccc(-c4ccsc4)cc3)nc21 (stereo not drawn) [Example 83] | 0.5 | 0.3 | 0.02
COc1ccc(Cc2nc3c(ncn3C(CCCc3ccccc3)C(C)=O)c(=O)[nH]2)cc1OC (stereo not drawn) [Example 100] | 1 | 1 | 0.004
CC(O)C(CCCc1ccccc1)n1cnc2c(=O)[nH]c(Cc3ccccc3)nc21 (stereo not drawn) [Example 33] | 0.8 | 3 | 0.1
COc1ccc(Cc2nc3c(ncn3C(CCCc3ccccc3)C(C)O)c(=O)[nH]2)cc1S(=O)(=O)N1CCC(C(=O)O)CC1 (stereo not drawn) [Example 138] | 0.5 | 0.5 | 0.001
CC(O)C(CCCc1ccccc1)n1cnc2c(=O)[nH]c(Cc3ccc(F)cc3)nc21 (stereo not drawn) [Example 69] | 0.5 | 3 | 0.06
CC(CCCc1ccccc1)n1cnc2c(=O)[nH]c(Cc3ccccc3)nc21 (stereo not drawn) [Example 1] | 0.3 | 0.5 | 0.2
CC(CCCc1ccccc1)n1cnc2c(=O)[nH]c(Cc3ccc(-c4cccnc4)cc3)nc21 (stereo not drawn) [Example 84] | 1 | 0.1 | 0.02
CC(CCCc1ccccc1)n1cnc2c(=O)[nH]c(Cc3ccc(-c4cccc(N)c4)cc3)nc21 (stereo not drawn) [Example 82] | 0.5 | 0.1 | 0.02
CC(O)C(CCCc1ccccc1)n1cnc2c(=O)[nH]c(Cc3ccc(Cl)c(Cl)c3)nc21 (stereo not drawn) [Example 34] | 0.5 | ~0.5 | 0.02
